{
  "source": "patent US20240033249A1",
  "about": "“Drug Implants Containing Darolutamide and Methods of Use Thereof” (The Regents of the University of California, priority 2022, published 2024)",
  "origin": "cited, not measured here",
  "conditions": "assuming 600 mg daily dose; systemic (e.g., oral) administration",
  "data": [
    {"smiles": "CC(O)c1cc(C(=O)N[C@@H](C)Cn2ccc(-c3ccc(C#N)c(Cl)c3)n2)[nH]n1", "note": "(stereo partly shown) [Darolutamide]", "values": [
      {"measurement": "steady state blood plasma concentration of Darolutamide", "result": "about 4.79 mg/L"}
    ]}
  ]
}
